Source: patent US20240226066A1, “CARDIOPROTECTION BY AUTOPHAGY INDUCTION AND METABOLIC REPROGRAMMING” (UNIVERSITE PARIS-SACLAY, priority 2021, published 2024)

Experiments:
Assay type in all cases: cell-based, rat
[1] = test system: MFN1; experiment: Western blot of MFN1 in RNVCs
Protocol: (§1) FIG. 6C: MFN1 and MFN2 protein levels in RNVCs analyzed by western blotting.
(§2) The H9C2 cells and RNVCs were detached in LB containing: 50 mM Tris, 150 mM NaCl, 1 mM EDTA, 0.5% deoxycholate, 1% Triton X 100, 0.1% SDS (pH 8.0). The cells were collected and placed on ice for 30 minutes. The cells were then centrifuged at 2000 g for 20 minutes at for 4° C. The supernatant was transferred to a new tube and stored on ice. The protein concentration was determined by BCA assay. The protein samples were diluted with sample buffer (2× Laemmli, Sigma), mixed, and heated for 5 minutes at 95° C. […] The images were recorded with a gel imaging system (Bio Rad). […]
(§3) Due to the importance of mitochondria and reactive oxygen species (ROS) levels in the fate of cardiomyocyte cells, the hypothesis that the compounds could impact the mitochondrial network was explored. […] Thus, the mitochondrial network and the individual mitochondria were then analyzed using the IMARIS software.

[2] = test system: BCL-XL; experiment: Western blot of BCL-XL expression in RNVCs; conditions: 6 h treatment
Protocol: Levels of protein expression of BCL-2 (FIG. 3A and FIG. 3B) BXL-XL (FIG. 3C) and BAX (FIG. 3C), in the RNVCs after 6 h of treatment (FIG. 3A, FIG. 3C, FIG. 3D) or 24 h (FIG. 3B). Co., untreated cell control. Each experiment was reproduced at least three times. Representative western blotting images and quantification of three independent experiments are presented as mean±SEM with single-factor ANOVA, with multiple Sidak comparisons. *, p<0.05 with respect to DMSO.
as §2

[3] = test system: MFN2; experiment: Western blot of MFN2 in RNVCs
Protocol: as §1, §2, §3

[4] = test system: H9C2 cells; experiment: Seahorse XF Cell Mito stress test (OCR)
Protocol: FIG. 8B: the H9c2 cells were treated with the compounds for 6 h, then a mitochondrial respiration stress test was carried out.
The XFe96 extracellular flow analyzer (Seahorse Biosciences, North Billerica, MA, USA) was used to measure the bioenergetic function of H9C2 cardiomyocytes. The H9C2 cells were seeded at 20 000 cells per well in XF96 cell culture microplates; all the pretreatments were carried out with serum-free cell culture medium. The Agilent Seahorse XF glycolysis stress test was performed to measure glycolytic function in the H9C2 cells; the extracellular acidification rate (ECAR) was measured sequentially by 3 injections, 10 mM glucose, 2 μM oligomycin and 50 mM 2-deoxy-D-glucose (2-DG). The Agilent Seahorse XF Cell Mito stress test measured key parameters of mitochondrial function by directly measuring the oxygen consumption rate (OCR) of the H9C2 cells. The test used the built-in injection ports on XF sensor cartridges to add respiration modulators into the cell well during the test in order to reveal key parameters of mitochondrial function. Oligomycin at 2 μM was injected first after the baseline measurements. Then 1 μM of […] (FCCP) was injected. The third injection corresponds to 0.5 μM of antimycin A, to stop mitochondrial respiration. The oxidation of the exogenous fatty acids was measured simultaneously using the XF palmitate-BSA FAO substrate kit with the mitochondrial stress test on XF cells. The substrate-limited medium is DMEM with 0.5 mM glucose, 1 mM GlutaMAX, 0.5 mM carnitine and 1% fetal calf serum. Carnitine was added freshly on the day of the change of medium. The FAO test medium contains 111 mM NaCl, 4.7 mM KCl, 1.25 mM CaCl2, 2 mM MgSO4, 1.2 mM NaH2PO4, supplemented with 2.5 mM glucose, 0.5 mM carnitine and 5 mM HEPES on the day of the test, adjusted to pH 7.4 at 37° C. The H9C2 cells were seeded at 20 000 cells per well in XF96 cell culture microplates. […]
Next, the energy metabolism was analyzed in real time using the Seahorse technology in H9C2 cells.

C[C@H]1O[C@@H](O[C@H]2[C@@H](O)C[C@H](O[C@H]3[C@@H](O)CC(O[C@H]4CC[C@@]5(C)[C@H](CC[C@@H]6[C@@H]5C[C@@H](O)[C@]5(C)[C@@H](C7=CC(=O)OC7)CC[C@]65O)C4)O[C@@H]3C)O[C@@H]2C)C[C@H](O)[C@@H]1O (stereo partly shown) [digoxin]
expression of fusion protein MFN1 [1]: decreased
expression of BCL-XL [2]: caused a decrease
expression of fusion protein MNF2 [3]: decreased

O=C1NC(c2ccccc2)=N/C1=C\c1cc2ccccc2c2ccccc12 [SG6163F]
OXPHOS ([4]; independently of the substrates): boost OXPHOS

C[C@]12CC[C@H](O)C[C@H]1CC[C@@H]1[C@@H]2CC[C@]2(C)[C@@H](C3=CC(=O)OC3)CC[C@]12O [digitoxigenin]
expression of fusion protein MFN1 [1]: decreased
ATP production by oxidative phosphorylation (OXPHOS) ([4]; glucose and pyruvate as substrates, 6 h): improved ATP production by oxidative phosphorylation
expression of fusion protein MNF2 [3]: decreased
